# Measurements published in patent US9115012B2, “Method of improving the water quality in aquatic ecosystems” (Kemin Industries, Inc., priority 2010, dated 2015).
# System: Vibrio spp. isolated from shrimp pond water
# Assay: Disk diffusion on Vibrio isolation agar (zone of inhibition)
# Format: cell-based
# Conditions: 10 μl on disk, extract of 20 g powder in 100 ml water, chloramphenicol 25 μg/ml, 37° C.
# Description: In another experiment, the effect of the nut gall extract on the growth of Vibrio spp. isolated from shrimp pond water was tested. The extract was prepared by adding 20 g of nut gall powder into 100 ml of water, soaking for one hour followed by centrifugation. Chloramphenicol (25 μg/ml) was taken as positive control. Vibrio isolation agar was prepared and the agar plates were cooled to room temperature. Sterile disk was placed in the centre of agar plate, after inoculating Vibrio spp. using a sterile cotton swab. 10 μl of extract/antibiotic was added to the disk and incubated at 37° C. in an incubator.
compound,measurement,value
O=C(N[C@H](CO)[C@H](O)c1ccc([N+](=O)[O-])cc1)C(Cl)Cl [Chloramphenicol],zone of inhibition at 25 µg/mL,13 mm
